Source: the NIST ThermoML archive (doi:10.1021/je5002686)
“And” between values parts separate entries of the source, which are not always exact repeats. Identical values can stand only once.

Conditions: Liquid, Vibrating tube method

CCOC(F)(C(F)(F)C(F)(F)C(F)(F)F)C(F)(C(F)(F)F)C(F)(F)F (centres undefined) [2-trifluoromethyl-3-ethoxydodecafluorohexane]
mass density
Conditions | 270 K | 290 K | 310 K | 330 K | 350 K
490 kPa | 1678.1 kg/m3 | 1637.9 kg/m3 | 1597.2 kg/m3 | 1555.1 kg/m3 | –
500 kPa | 1678.3 kg/m3 | 1638.1 kg/m3 and 1638.2 kg/m3 | 1597.2 kg/m3 and 1597.5 kg/m3 | 1555.2 kg/m3 and 1555 kg/m3 | 1511.4 kg/m3 and 1511.5 kg/m3
510 kPa | – | – | – | – | 1511.6 kg/m3
990 kPa | 1679.2 kg/m3 and 1679.3 kg/m3 | 1639.4 kg/m3 and 1639.5 kg/m3 | 1598.7 kg/m3 | – | 1513.6 kg/m3
1000 kPa | 1679.2 kg/m3 | 1639.2 kg/m3 | 1598.7 kg/m3 and 1599 kg/m3 | 1556.9 kg/m3 and 1556.7 kg/m3 | 1513.7 kg/m3 and 1513.5 kg/m3
1990 kPa | 1681.3 kg/m3 | 1641.9 kg/m3 | – | 1560.4 kg/m3 | 1517.8 kg/m3
2000 kPa | 1681.5 kg/m3 | 1641.7 kg/m3 and 1642 kg/m3 | 1601.6 kg/m3 and 1601.9 kg/m3 | 1560.2 kg/m3 and 1560.3 kg/m3 | 1517.6 kg/m3 and 1517.8 kg/m3
2990 kPa | – | 1644.4 kg/m3 | 1604.8 kg/m3 | 1563.6 kg/m3 | 1521.8 kg/m3
3000 kPa | 1683.4 kg/m3 | 1644.3 kg/m3 and 1644.1 kg/m3 | 1604.5 kg/m3 and 1604.4 kg/m3 | 1563.8 kg/m3 and 1563.7 kg/m3 | 1521.9 kg/m3 and 1521.7 kg/m3
3010 kPa | 1683.6 kg/m3 | – | – | – | –
3990 kPa | 1685.5 kg/m3 | 1646.7 kg/m3 and 1646.5 kg/m3 | 1607.3 kg/m3 | 1567 kg/m3 | –
4000 kPa | 1685.6 kg/m3 | 1646.8 kg/m3 | 1607.2 kg/m3 and 1607.6 kg/m3 | 1567.1 kg/m3 and 1566.9 kg/m3 | 1525.8 kg/m3 and 1525.6 kg/m3 and 1525.7 kg/m3
4990 kPa | 1687.5 kg/m3 | 1649.1 kg/m3 | 1609.9 kg/m3 | 1570.2 kg/m3 | 1529.4 kg/m3
5000 kPa | 1687.7 kg/m3 and 1687.5 kg/m3 | 1648.9 kg/m3 and 1649.2 kg/m3 | 1610 kg/m3 | 1570.3 kg/m3 and 1570.1 kg/m3 | 1529.6 kg/m3 and 1529.5 kg/m3
5010 kPa | – | – | 1610.3 kg/m3 | – | –
9990 kPa | 1697.3 kg/m3 | 1660.3 kg/m3 and 1660.1 kg/m3 and 1660.4 kg/m3 | – | 1585.3 kg/m3 | 1547.1 kg/m3
10000 kPa | 1697.3 kg/m3 and 1697.4 kg/m3 | – | 1622.9 kg/m3 and 1623.3 kg/m3 and 1623 kg/m3 | 1585.1 kg/m3 and 1585.2 kg/m3 | 1546.9 kg/m3 and 1547 kg/m3
14990 kPa | 1706.5 kg/m3 | – | – | – | –
15000 kPa | 1706.5 kg/m3 and 1706.6 kg/m3 | 1670.8 kg/m3 and 1670.6 kg/m3 | 1634.8 kg/m3 and 1635.2 kg/m3 and 1634.9 kg/m3 | 1598.9 kg/m3 and 1598.7 kg/m3 and 1598.8 kg/m3 | 1562.7 kg/m3 and 1562.5 kg/m3 and 1562.6 kg/m3
19990 kPa | – | 1680.5 kg/m3 and 1680.3 kg/m3 | 1645.8 kg/m3 and 1645.9 kg/m3 | 1611.3 kg/m3 and 1611.2 kg/m3 | 1576.5 kg/m3 and 1576.6 kg/m3
20000 kPa | 1715.1 kg/m3 and 1715.2 kg/m3 | 1680.6 kg/m3 | 1646.2 kg/m3 | 1611.2 kg/m3 | 1576.8 kg/m3
24990 kPa | 1723.4 kg/m3 | – | – | – | 1589.6 kg/m3 and 1589.4 kg/m3 and 1589.5 kg/m3
25000 kPa | 1723.3 kg/m3 and 1723.5 kg/m3 | 1689.7 kg/m3 and 1689.5 kg/m3 | 1656.1 kg/m3 | 1622.9 kg/m3 and 1622.6 kg/m3 and 1622.7 kg/m3 | –
25010 kPa | – | – | 1656.5 kg/m3 and 1656.2 kg/m3 | – | –
29990 kPa | 1731.3 kg/m3 | – | 1665.8 kg/m3 | 1633.5 kg/m3 | 1601.3 kg/m3
30000 kPa | 1731.1 kg/m3 and 1731.2 kg/m3 | 1698.4 kg/m3 | 1666.2 kg/m3 | 1633.4 kg/m3 and 1633.5 kg/m3 | 1601.5 kg/m3 and 1601.4 kg/m3
30010 kPa | – | 1698.3 kg/m3 | 1665.7 kg/m3 | – | –
34990 kPa | 1738.7 kg/m3 | 1706.7 kg/m3 | 1674.8 kg/m3 | 1643.6 kg/m3 and 1643.5 kg/m3 | 1612.3 kg/m3 and 1612.4 kg/m3
35000 kPa | 1738.6 kg/m3 and 1738.7 kg/m3 | 1706.5 kg/m3 | 1674.9 kg/m3 | 1643.4 kg/m3 | 1612.6 kg/m3
35010 kPa | – | 1706.7 kg/m3 | 1675.3 kg/m3 | – | –
40000 kPa | 1745.7 kg/m3 and 1745.8 kg/m3 and 1745.9 kg/m3 | 1714.6 kg/m3 and 1714.4 kg/m3 and 1714.5 kg/m3 | 1683.5 kg/m3 and 1683.9 kg/m3 and 1683.6 kg/m3 | 1653.1 kg/m3 and 1652.8 kg/m3 and 1652.9 kg/m3 | –
44990 kPa | 1752.7 kg/m3 | 1722.1 kg/m3 | – | 1661.8 kg/m3 and 1661.9 kg/m3 | –
45000 kPa | 1752.6 kg/m3 | 1721.9 kg/m3 and 1722.1 kg/m3 | 1691.7 kg/m3 and 1692.2 kg/m3 and 1691.8 kg/m3 | 1662 kg/m3 | –
49930 kPa | – | 1729.2 kg/m3 | – | – | –
49940 kPa | – | 1729.1 kg/m3 | – | – | –
49950 kPa | – | 1729 kg/m3 | – | – | –
49960 kPa | 1759.2 kg/m3 | – | – | – | –
49970 kPa | 1759.2 kg/m3 | – | 1699.6 kg/m3 | – | –
49980 kPa | – | – | – | 1670.4 kg/m3 | –
49990 kPa | – | – | – | 1670.3 kg/m3 | –
50000 kPa | 1759.4 kg/m3 | – | – | – | –
50010 kPa | – | – | 1699.6 kg/m3 | 1670.6 kg/m3 | –
50050 kPa | – | – | 1700.1 kg/m3 | – | –
